In patent publication US5155259A, “Aldose reductase inhibitor” (Toyo Jozo Kabushiki Kaisha, priority 1990, dated 1992):

Tests used:
[1] = target: T1, aldose reductase, originating from the lens of cattle (Bos taurus, UniProt P16116); experiment: Enzyme reaction inhibiting activity (aldose reductase, NADPH / D,L-glyceraldehyde, absorbance at 340 nm); assay type: biochemical; conditions: for inhibition at 0.1 µg: concentration of 0.1 γ, pH 6.0, 37° C.
T1 construct: originating from the lens of cattle, was employed after being subjected to a partial purification; from tissue; host or cells: lens of cattle, partially purified
Experimental: The preparation of aldose reductase and the determination of its enzyme reaction inhibiting activity were carried out pursuant to the procedures disclosed by Haymann et al. in Journal of Biological Chemistry, 240, 877 (1965).
The sample solution to be examined for inhibiting activity was prepared by dissolving an amount of a compound of formula (I) according to the present invention in a small amount of methanol and increasing the volume of the resulting methanol solution by diluting it with distilled water up to tenfold volume. As the enzyme, i.e. aldose reductase, originating from the lens of cattle, was employed after being subjected to a partial purification.
To 2.4 ml of 5×10^-5 M NADPH solution dissolved in a 2/15 M phosphate buffer solution (pH 6.0), 0.4 ml of the enzyme solution and 0.1 ml of the sample solution to be examined were added and the mixture was charged in a quartz cell in a photoelectric photometer and was subjected to preincubation at 37° C. for 4 mins. Then, 0.1 ml of a 0.015 M D,L-glyceraldehyde solution was added thereto for initiating the enzyme reaction and the decrease in the photoabsorbance at 340 nm was measured at 37° C. for 4 mins. The aldose reductase inhibiting activity calculated by [formula] in which A represents the enzyme reaction rate with addition of the inhibitor and B denotes the enzyme reaction rate without addition of the inhibitor.

[2] = test system: sorbitol accumulation in lens; experiment: Activity for suppressing accumulation of sorbitol, tissue culture of lens; assay type: cell-based, Wistar rats; conditions: for Inhibition of Sorbite Accumulat. in Lens: concentration of 2.5 γ, rat lens cultured 20 hours with added glucose
Experimental: (§1) Lenses and sciatic nerves excised from 7 weeks-old male Wistar rats were washed twice with an aseptic buffer solution consisting of 0.3% trisaminomethane, 0.8% NaCl, 0.038% KCl, 0.025% Na2 HPO4.12H2 O, 0.1% glucose and 1.85 ml/1 of concentrated HCl.
(§2) The lenses and the sciatic nerves were then treated by a 30 mins. preculture in a culture medium prepared by adding 2 ml of 7.5% conc. aseptic NaHCO3 solution and 5.5 ml of aseptic calf fetus serum to 100 ml of an aseptic culture medium of 0.98% TC Medium 199 (supplied from the firm NISSUI) containing 0.01% of dihydrostreptomycin and 0.01% of benzyl-penicillin. Thereafter, the intrinsic culture was effected in a culture medium prepared by adding each sample solution to be examined and 0.09% of glucose to the above-mentioned culture medium and permitting culturing to proceed for 20 hours. The culturing was effected at 37° C. in an atmosphere composed of 95% air and 5% CO2.
(§3) After culturing, the cultured samples of lens and sciatic nerve were removed from the culture medium to filter paper and the weight of each of them was measured after the adherent culture solution had been blown off. Then, each of the cultured samples was homogenized with the addition of 1 ml of a cold 8% HClO4 solution and the homogenized mixture was subjected to centrifugation at 10,000 G for 10 mins., whereby a supernatant was obtained. The resulting precipitate was then homogenized again with addition thereto of 0.5 ml of cold 8% HClO4 solution and the homogenized mixture was again subjected to centrifugation in a similar way as above to obtain a further supernatant. This was combined with the previously obtained supernatant and the resulting solution was neutralized with 2 N KOH aq. solution and was diluted with distilled water to a volume of 5 ml. The precipitate formed by neutralization was separated by centrifugation at 3,000 rpm for 10 mins. and the resulting supernatant was employed as the sample for determining the sorbitol content.
(§4) The determination of the sorbitol content in the lens and in the sciatic nerve was carried out in accordance with the technique of Bergmeyer in "Methods of Enzymatic Analysis" edited by H.U. Bergmeyer, pp 1323-1326, Academic Press, New York, 1974 and in accordance with the technique proposed by Malaon et al. in "Diabetes" 29, 861-864 (1980).
(§5) To 0.5 ml of the sample solution for determination of sorbitol content obtained as above, 0.9 ml of 0.1 M glycine-KOH buffer solution (pH 9.4) containing 1 mM of NAD^+ and 0.1 ml of a solution of sorbitol dehydrogenase of 20 units/ml were added and the resulting mixture was subjected to incubation at 37° C. for 1 hour.
(§6) The content of sorbitol in each tissue was estimated by assuming the increment of the photoabsorbance at 340 nm to be proportional to the amount of NADH produced by the reaction for the lens and by detecting the fluorescence with an excitation wavelength of 366 nm and a fluorescence wavelength of 425 nm for the sciatic nerve.
(§7) The activity for suppressing accumulation of sorbitol, i.e. the aldose reductase inhibiting activity, was calculated from the determined sorbitol content by the calculation formula [formula] in which A denotes the content of sorbitol per unit weight of the tissue after cultivation with addition of the inhibitor, B denotes the sorbitol content per unit weight of the tissue after cultivation without addition of the inhibitor and C represents the sorbitol content per unit weight of the tissue after cultivation in the medium without addition of glucose and inhibitor.

[3] = test system: sorbitol accumulation in sciatic nerve; experiment: Activity for suppressing accumulation of sorbitol, tissue culture of sciatic nerve; assay type: cell-based, Wistar rats; conditions: concentration of 1.0 γ; rat sciatic nerve cultured 20 hours with added glucose
Experimental: as §1, §2, §3, §4, §5, §6, §7

STD-DDY mice = experiment: Acute toxicity, oral; assay type: in vivo; conditions: orally 400 mg/20 ml/kg, dissolved with aqueous NaOH at pH 6.5-7.0, observed for 10 days
Experimental: Compounds of formula (I) according to the present invention, as given in the examples below or 2,2'-dimethoxy-5, 5'-bis(3-carboxypropyl) biphenyl, were suspended in distilled water and were dissolved completely by adding at least the equimolar amount of aqueous NaOH solution. […] No fatality was marked in any of the administered groups.

| inhibition at 0.1 µg [1] | Compound | aldose reductase inhibiting activity (in words) ([1]; tests according to 1) and 2), concentration not given) | activity for suppressing accumulation of sorbitol (in words) ([2]; tissue and concentration not stated) | Inhibition of Sorbite Accumulat. in Lens [2] | Inhibition of Sorbite Accum. in Sciatic N. [3] | fatality (acute toxicity) (STD-DDY mice) |
| --- | --- | --- | --- | --- | --- | --- |
| 44% | O=C(O)CCc1ccc(OCC2CCCCC2)c(-c2cc(CCC(=O)O)ccc2OCC2CCCCC2)c1 [2,2'-dicyclohexylmethoxy-5,5'-bis(2-carboxyethyl) biphenyl] |  |  | 51% |  |  |
| 45% | O=C(O)CCCc1ccc(OCC2CCCCC2)c(-c2cc(CCCC(=O)O)ccc2OCC2CCCCC2)c1 [2,2'-dicyclohexylmethoxy-5,5'-bis(3-carboxypropyl) biphenyl] |  |  | 57% |  |  |
| 43% | CCOc1ccc(CCC(=O)O)cc1-c1cc(CCC(=O)O)ccc1OCC [R=C2H5, n=2, 2,2'-diethoxy-5,5'-bis(2-carboxyethyl) biphenyl] |  |  | 56% | 69% |  |
| 35% | CCCOc1ccc(CCC(=O)O)cc1-c1cc(CCC(=O)O)ccc1OCCC [R=C3H7, n=2, 2,2'-dipropoxy-5,5'-bis(2-carboxyethyl) biphenyl] |  |  | 66% | 67% |  |
| 44% | COc1ccc(CCC(=O)O)cc1-c1cc(CCC(=O)O)ccc1OC [R=CH3, n=2, 2,2'-dimethoxy-5,5'-bis(2-carboxyethyl) biphenyl] |  |  | 76% | 85% |  |

The remaining lines, values behind:

| Compound | inhibition at 0.1 µg [1] | aldose reductase inhibiting activity (in words) ([1]; tests according to 1) and 2), concentration not given) | activity for suppressing accumulation of sorbitol (in words) ([2]; tissue and concentration not stated) | Inhibition of Sorbite Accumulat. in Lens [2] | Inhibition of Sorbite Accum. in Sciatic N. [3] | fatality (acute toxicity) (STD-DDY mice) |
| --- | --- | --- | --- | --- | --- | --- |
| 2,2'-dimethoxy-5, 5'-bis(3-carboxypropyl) biphenyl diester |  | did not exhibit any aldose reductase inhibiting activity | no activity for suppressing accumulation of sorbitol |  |  |  |
| CCOc1ccc(CCCC(=O)O)cc1-c1cc(CCCC(=O)O)ccc1OCC [R=C2H5, n=3, 2,2'-diethoxy-5,5'-bis(3-carboxypropyl) biphenyl] | 77% |  |  | 76% | 80% |  |
| CCCOc1ccc(CCCC(=O)O)cc1-c1cc(CCCC(=O)O)ccc1OCCC [R=C3H7, n=3, 2,2'-dipropoxy-5,5'-bis(3-carboxypropyl) biphenyl] | 57% |  |  | 68% | 67% |  |
| CCCCCOc1ccc(CCCC(=O)O)cc1-c1cc(CCCC(=O)O)ccc1OCCCCC [R=C5H11, n=3, 2,2'-dipentyloxy-5,5,'-bis(3-carboxypropyl) biphenyl] | 48% |  |  |  |  |  |
| COc1ccc(CCCC(=O)O)cc1-c1cc(CCCC(=O)O)ccc1OC [R=CH3, n=3, 2,2'-dimethoxy-5,5'-bis (3-carboxypropyl) biphenyl] | 63% |  |  | 85% | 92% | No fatality |
